Experimental data taken from the supplement of paper PMC10307832.

Assays:
Assay in all cases: relative viability (nuclei count vs DMSO), 5 days (fraction); higher = more cells survive
[1] = compound: Cc1ccc(C(=O)Nc2cccc(C(F)(F)F)c2)cc1Nc1cncc(C(N)=O)c1 [ALW-II-49-7] + Nc1ncn([C@H]2C[C@H](O)[C@@H](CO)O2)c(=O)n1 [Decitabine] (partner 2 µM)
How it was run: (§1)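 Values are medians from duplicate plates. Each reflects relative viability, defined as the nuclei count of treated wells over that of vehicle wells. Lung cancer cell lines in 1536-well plates were pin-tool dosed one day after seeding with one drug alone or with a fixed anchor-drug dose plus five library-drug doses (not always all listed) in √10 steps, then fixed, stained and imaged at 4× after 5 days.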

[2] = compound: Cc1ccc(C(=O)Nc2cccc(C(F)(F)F)c2)cc1Nc1cncc(C(N)=O)c1 [ALW-II-49-7] + NC(=O)Nc1cc(-c2cccc(F)c2)sc1C(=O)N[C@H]1CCCNC1 [AZD7762] (partner 0.2 µM)
How it was run: as §1

[3] = compound: Cc1ccc(C(=O)Nc2cccc(C(F)(F)F)c2)cc1Nc1cncc(C(N)=O)c1 [ALW-II-49-7] + CCNC(=O)c1noc(-c2cc(C(C)C)c(O)cc2O)c1-c1ccc(CN2CCOCC2)cc1 [Luminespib] (partner 0.01 µM)
How it was run: as §1

[4] = compound: Cc1ccc(C(=O)Nc2cccc(C(F)(F)F)c2)cc1Nc1cncc(C(N)=O)c1 [ALW-II-49-7] + CC(C)C[C@H](NC(=O)[C@H](Cc1ccccc1)NC(=O)c1cnccn1)B(O)O [Bortezomib] (partner 0.002 µM)
How it was run: as §1

| Cell Line | relative viability ([1]; first compound 0.08 µM) | relative viability ([1]; first compound 0.253 µM) | relative viability ([1]; first compound 0.8 µM) | relative viability ([1]; first compound 2.53 µM) | relative viability ([1]; first compound 8 µM) | relative viability ([2]; first compound 0.08 µM) | relative viability ([2]; first compound 0.253 µM) | relative viability ([2]; first compound 0.8 µM) | relative viability ([2]; first compound 2.53 µM) | relative viability ([2]; first compound 8 µM) | relative viability ([3]; first compound 0.08 µM) | relative viability ([3]; first compound 0.253 µM) | relative viability ([3]; first compound 0.8 µM) | relative viability ([3]; first compound 2.53 µM) | relative viability ([3]; first compound 8 µM) | relative viability ([4]; first compound 0.08 µM) | relative viability ([4]; first compound 0.253 µM) | relative viability ([4]; first compound 0.8 µM) | relative viability ([4]; first compound 2.53 µM) | relative viability ([4]; first compound 8 µM) |
| --- | --- | --- | --- | --- | --- | --- | --- | --- | --- | --- | --- | --- | --- | --- | --- | --- | --- | --- | --- | --- |
| NCI-H2405 | 0.699 | 0.751 | 0.75 | 0.685 | 0.722 | 0.746 | 0.808 | 0.553 | 0.645 | 0.485 | 0.788 | 0.598 | 0.646 | 0.474 | 0.459 | 1.05 | 0.886 | 1.09 | 0.954 | 0.89 |
| NCI-H3122 | 0.42 | 0.392 | 0.585 | 0.469 | 0.42 | 1.05 | 0.853 | 1.06 | 1.05 | 1.03 | 0.0922 | 0.0773 | 0.124 | 0.102 | 0.195 | 1.09 | 1.06 | 1.11 | 1.08 | 1.11 |
| HCC-44 | 0.971 | 0.974 | 0.945 | 0.996 | 0.913 | 0.992 | 1.02 | 1.03 | 1.03 | 0.964 |  | 0.987 | 1.12 | 0.333 | 1.04 | 0.84 | 0.89 | 0.885 | 0.846 | 0.889 |
| PC-3 [JPC-3] | 0.785 | 0.95 | 0.771 | 0.814 | 0.873 | 0.738 | 0.735 | 0.68 | 0.801 | 0.672 | 0.669 | 0.698 | 0.636 | 0.548 | 0.772 | 0.746 | 0.777 | 0.758 | 0.862 | 0.825 |
| NCI-H1993 | 0.591 | 0.567 | 0.603 | 0.576 | 0.587 | 0.981 | 0.674 | 0.722 | 0.812 | 0.622 | 0.701 | 0.705 | 0.95 | 0.793 | 1.14 | 1.14 | 1.19 | 1.01 | 1.13 | 1.33 |
| LOU-NH91 | 0.785 | 0.824 | 0.844 |  | 0.861 | 0.567 | 0.774 | 0.782 |  | 0.596 | 0.384 | 0.363 | 0.321 | 0.276 | 0.283 | 0.425 | 0.529 | 0.549 | 0.316 | 0.489 |
| LCLC-103H | 0.757 | 0.781 | 0.726 | 0.727 | 0.684 | 0.742 | 0.817 | 0.756 | 0.649 | 0.656 | 0.852 | 1.01 | 1.03 | 0.854 | 1.03 | 1.03 | 0.859 | 1.1 | 0.9 | 0.962 |
| NCI-H1915 | 0.257 | 0.294 | 0.261 | 0.262 | 0.264 | 0.675 | 0.678 | 0.688 | 0.636 | 0.477 | 0.745 | 0.612 | 0.679 | 0.493 | 0.441 | 0.648 | 1 | 0.918 | 0.931 | 0.67 |
| NCI-H1734 | 0.492 | 0.53 | 0.527 | 0.584 | 0.574 | 0.588 | 0.562 | 0.544 | 0.483 | 0.55 | 0.209 | 0.177 | 0.169 | 0.181 | 0.186 | 1.07 | 1.14 | 0.846 | 0.823 | 0.738 |
| HCC-15 | 0.596 | 0.654 | 0.626 | 0.624 | 0.644 | 1.22 | 1.14 | 1 | 1.39 | 1.25 | 0.172 | 0.302 | 0.319 | 0.304 | 0.391 | 0.957 | 0.92 | 0.959 | 1.1 | 0.952 |
| NCI-H1355 | 0.329 | 0.366 | 0.391 | 0.436 | 0.376 | 0.71 | 0.805 | 0.738 | 0.695 | 0.606 | 0.722 | 0.628 | 0.658 | 0.562 | 0.708 | 0.983 | 1.26 | 1.23 | 1.2 | 1.08 |
| LU99A |  | 1.03 | 1 | 0.839 | 1.09 |  | 0.376 | 0.294 | 0.312 | 0.626 | 0.253 | 0.212 | 0.194 | 0.217 | 0.288 | 1.29 | 1.17 | 1.05 | 1.07 | 1.27 |
| LCLC-97TM1 | 0.256 | 0.201 | 0.252 | 0.236 | 0.207 | 0.228 | 0.418 | 0.328 | 0.156 | 0.179 | 0.772 | 0.689 | 0.807 | 0.869 | 0.656 | 0.354 | 0.677 | 0.651 |  | 0.218 |
| LC-2-ad | 0.84 | 0.845 | 0.861 | 0.8 | 0.863 | 0.844 | 0.824 | 0.756 | 0.805 | 0.93 | 0.962 | 1.04 | 1.02 | 0.494 | 1 | 1.06 | 0.997 | 1.01 | 1.05 | 0.983 |
| HOP-62 | 0.207 | 0.286 | 0.165 | 0.223 | 0.285 | 0.386 | 0.455 | 0.648 | 0.619 | 0.586 | 0.959 | 0.883 | 0.75 | 0.702 | 0.735 | 0.852 | 1.06 | 1.02 | 0.369 | 0.965 |
